# Experimental data taken from ChEMBL document CHEMBL3526019, “Novel cytochrome P450-mediated ring opening of the 1,3,4-oxadiazole in setileuton, a 5-lipoxygenase inhibitor” (Drug Metab Dispos, 2011).
# T1: Cytochrome P450 1A1 (Rattus norvegicus, UniProt P00185)
# T1 sequence (P00185 whole entry): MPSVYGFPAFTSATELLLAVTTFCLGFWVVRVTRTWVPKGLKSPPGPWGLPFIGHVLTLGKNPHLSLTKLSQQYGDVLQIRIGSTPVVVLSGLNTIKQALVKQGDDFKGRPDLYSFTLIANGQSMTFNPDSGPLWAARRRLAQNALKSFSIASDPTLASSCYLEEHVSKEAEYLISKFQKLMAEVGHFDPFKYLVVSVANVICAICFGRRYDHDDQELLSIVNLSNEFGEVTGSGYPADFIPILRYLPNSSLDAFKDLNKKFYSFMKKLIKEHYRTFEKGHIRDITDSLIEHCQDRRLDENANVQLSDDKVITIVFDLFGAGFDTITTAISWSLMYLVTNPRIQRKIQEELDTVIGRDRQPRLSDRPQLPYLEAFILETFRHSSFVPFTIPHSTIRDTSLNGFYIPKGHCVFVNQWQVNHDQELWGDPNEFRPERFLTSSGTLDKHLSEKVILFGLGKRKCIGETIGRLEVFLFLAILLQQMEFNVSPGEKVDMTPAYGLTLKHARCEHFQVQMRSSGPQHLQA
# T2: Cytochrome P450 1A2 (Rattus norvegicus, UniProt P04799)
# T2 sequence (P04799 whole entry): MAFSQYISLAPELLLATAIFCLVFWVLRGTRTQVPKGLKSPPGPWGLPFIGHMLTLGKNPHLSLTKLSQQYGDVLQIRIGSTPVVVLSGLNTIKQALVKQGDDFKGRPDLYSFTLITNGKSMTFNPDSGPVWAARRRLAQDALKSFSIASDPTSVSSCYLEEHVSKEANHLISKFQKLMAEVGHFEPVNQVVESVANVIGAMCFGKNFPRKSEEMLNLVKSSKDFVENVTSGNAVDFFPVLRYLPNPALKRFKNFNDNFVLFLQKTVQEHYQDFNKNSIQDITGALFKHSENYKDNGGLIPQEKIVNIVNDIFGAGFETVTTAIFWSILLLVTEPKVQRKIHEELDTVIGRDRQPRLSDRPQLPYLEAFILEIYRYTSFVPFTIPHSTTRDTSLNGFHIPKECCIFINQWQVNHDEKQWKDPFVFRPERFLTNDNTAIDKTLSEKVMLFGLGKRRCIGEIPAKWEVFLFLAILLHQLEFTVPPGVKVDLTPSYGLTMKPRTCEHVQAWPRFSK
# T3: Cytochrome P450 3A1 (Rattus norvegicus, UniProt P04800)
# T3 sequence (P04800 whole entry): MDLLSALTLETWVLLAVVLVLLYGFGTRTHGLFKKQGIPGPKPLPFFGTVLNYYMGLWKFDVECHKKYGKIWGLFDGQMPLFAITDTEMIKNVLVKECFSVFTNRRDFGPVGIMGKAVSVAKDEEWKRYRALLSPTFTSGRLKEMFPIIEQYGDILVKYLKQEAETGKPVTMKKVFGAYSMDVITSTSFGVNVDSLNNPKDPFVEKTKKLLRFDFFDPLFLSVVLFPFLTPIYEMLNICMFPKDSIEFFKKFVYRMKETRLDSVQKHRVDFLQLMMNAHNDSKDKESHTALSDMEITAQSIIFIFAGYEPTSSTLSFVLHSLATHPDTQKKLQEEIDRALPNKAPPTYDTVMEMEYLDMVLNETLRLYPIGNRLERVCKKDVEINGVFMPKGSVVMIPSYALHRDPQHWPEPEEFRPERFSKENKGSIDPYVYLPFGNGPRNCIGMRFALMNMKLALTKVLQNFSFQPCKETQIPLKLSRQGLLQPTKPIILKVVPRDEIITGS
# T4: Cytochrome P450 3A2 (Rattus norvegicus, UniProt P05183)
# T4 sequence (P05183 whole entry): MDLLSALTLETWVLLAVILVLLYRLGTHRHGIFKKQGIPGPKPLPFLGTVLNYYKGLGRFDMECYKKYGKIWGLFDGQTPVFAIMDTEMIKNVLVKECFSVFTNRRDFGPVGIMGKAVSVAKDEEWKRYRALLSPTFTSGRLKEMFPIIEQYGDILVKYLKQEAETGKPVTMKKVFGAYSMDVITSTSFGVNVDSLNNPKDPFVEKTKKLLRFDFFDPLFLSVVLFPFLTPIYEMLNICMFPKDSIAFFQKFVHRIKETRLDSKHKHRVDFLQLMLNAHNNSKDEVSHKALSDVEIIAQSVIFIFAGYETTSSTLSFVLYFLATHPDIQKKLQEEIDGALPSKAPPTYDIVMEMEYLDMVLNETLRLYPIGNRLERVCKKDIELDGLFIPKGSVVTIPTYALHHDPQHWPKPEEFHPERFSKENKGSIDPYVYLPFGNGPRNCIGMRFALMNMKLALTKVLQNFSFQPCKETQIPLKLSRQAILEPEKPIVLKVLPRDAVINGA
# B1: Cytochrome P450 3A2 (Rattus norvegicus) (protein)
# chain: MDLLSALTLETWVLLAVILVLLYRLGTHRHGIFKKQGIPGPKPLPFLGTVLNYYKGLGRFDMECYKKYGKIWGLFDGQTPVFAIMDTEMIKNVLVKECFSVFTNRRDFGPVGIMGKAVSVAKDEEWKRYRALLSPTFTSGRLKEMFPIIEQYGDILVKYLKQEAETGKPVTMKKVFGAYSMDVITSTSFGVNVDSLNNPKDPFVEKTKKLLRFDFFDPLFLSVVLFPFLTPIYEMLNICMFPKDSIAFFQKFVHRIKETRLDSKHKHRVDFLQLMLNAHNNSKDEVSHKALSDVEIIAQSVIFIFAGYETTSSTLSFVLYFLATHPDIQKKLQEEIDGALPSKAPPTYDIVMEMEYLDMVLNETLRLYPIGNRLERVCKKDIELDGLFIPKGSVVTIPTYALHHDPQHWPKPEEFHPERFSKENKGSIDPYVYLPFGNGPRNCIGMRFALMNMKLALTKVLQNFSFQPCKETQIPLKLSRQAILEPEKPIVLKVLPRDAVINGA
# B2: Cytochrome P450 1A1 (Rattus norvegicus) (protein)
# chain: MPSVYGFPAFTSATELLLAVTTFCLGFWVVRVTRTWVPKGLKSPPGPWGLPFIGHVLTLGKNPHLSLTKLSQQYGDVLQIRIGSTPVVVLSGLNTIKQALVKQGDDFKGRPDLYSFTLIANGQSMTFNPDSGPLWAARRRLAQNALKSFSIASDPTLASSCYLEEHVSKEAEYLISKFQKLMAEVGHFDPFKYLVVSVANVICAICFGRRYDHDDQELLSIVNLSNEFGEVTGSGYPADFIPILRYLPNSSLDAFKDLNKKFYSFMKKLIKEHYRTFEKGHIRDITDSLIEHCQDRRLDENANVQLSDDKVITIVFDLFGAGFDTITTAISWSLMYLVTNPRIQRKIQEELDTVIGRDRQPRLSDRPQLPYLEAFILETFRHSSFVPFTIPHSTIRDTSLNGFYIPKGHCVFVNQWQVNHDQELWGDPNEFRPERFLTSSGTLDKHLSEKVILFGLGKRKCIGETIGRLEVFLFLAILLQQMEFNVSPGEKVDMTPAYGLTLKHARCEHFQVQMRSSGPQHLQA
# What was measured:
# Cytochrome P450 1A1 [1] = target: T1, Cytochrome P450 1A1; test: Activity of rat recombinant CYP1A1 expressed in baculovirus-infected insect cells assessed as enzyme-mediated compound formation treated with setileuton at 10 uM preincubated for 3 mins measured after 30 mins in presence of 1 mM NADPH; format: ADME; details: 0.5 h
# Cytochrome P450 1A2 [2] = target: T2, Cytochrome P450 1A2; test: Activity of rat recombinant CYP1A2 expressed in baculovirus-infected insect cells assessed as enzyme-mediated compound formation treated with setileuton at 10 uM preincubated for 3 mins measured after 30 mins in presence of 1 mM NADPH; format: ADME; details: 0.5 h
# Cytochrome P450 3A1 [3] = target: T3, Cytochrome P450 3A1; test: Activity of rat recombinant CYP3A1 expressed in baculovirus-infected insect cells assessed as enzyme-mediated compound formation treated with setileuton at 10 uM preincubated for 3 mins measured after 30 mins in presence of 1 mM NADPH; format: ADME; details: 0.5 h
# Cytochrome P450 3A2 [4] = target: T4, Cytochrome P450 3A2; test: Activity of rat recombinant CYP3A2 expressed in baculovirus-infected insect cells assessed as enzyme-mediated compound formation treated with setileuton at 10 uM preincubated for 3 mins measured after 30 mins in presence of 1 mM NADPH; format: ADME; details: 0.5 h
# Liver microsome [5] = test: Drug level in NADPH fortified rat liver microsomes treated with setileuton; format: ADME
# [6] = Drug level in rat urine treated with setileuton; format: ADME, tissue-based; details: in vivo
# Cytochrome P450 1A2 [7] = target: T2, Cytochrome P450 1A2; test: Activity of CYP1A2 in rat liver microsomes assessed as enzyme mediated compound formation treated with 10 uM setileuton after 2 mins in presence of NADPH (reference value: 8.10 +/- 2.26 nM); format: ADME
# Cytochrome P450 1A2 [8] = target: T2, Cytochrome P450 1A2; test: Activity of CYP1A2 in rat liver microsomes assessed as enzyme mediated compound formation treated with 10 uM setileuton after 5 mins in presence of NADPH (reference value: 8.10 +/- 2.26 nM); format: ADME
# Cytochrome P450 1A2 [9] = target: T2, Cytochrome P450 1A2; test: Activity of CYP1A2 in rat liver microsomes assessed as enzyme mediated compound formation treated with 10 uM setileuton after 8 mins in presence of NADPH (reference value: 8.10 +/- 2.26 nM); format: ADME
# Cytochrome P450 1A2 [10] = target: T2, Cytochrome P450 1A2; test: Activity of CYP1A2 in rat liver microsomes assessed as enzyme mediated compound formation treated with 10 uM setileuton after 10 mins in presence of NADPH (reference value: 8.10 +/- 2.26 nM); format: ADME
# Cytochrome P450 1A2 [11] = target: T2, Cytochrome P450 1A2; test: Activity of CYP1A2 in rat liver microsomes assessed as enzyme mediated compound formation treated with 10 uM setileuton after 2 mins in absence of NADPH (reference value: 1.93 +/- 0.40 nM); format: ADME
# Cytochrome P450 1A2 [12] = target: T2, Cytochrome P450 1A2; test: Activity of CYP1A2 in rat liver microsomes assessed as enzyme mediated compound formation treated with 10 uM setileuton after 5 mins in absence of NADPH (reference value: 1.93 +/- 0.40 nM); format: ADME
# Cytochrome P450 1A2 [13] = target: T2, Cytochrome P450 1A2; test: Activity of CYP1A2 in rat liver microsomes assessed as enzyme mediated compound formation treated with 10 uM setileuton after 8 mins in absence of NADPH (reference value: 1.93 +/- 0.40 nM); format: ADME
# Cytochrome P450 1A2 [14] = target: T2, Cytochrome P450 1A2; test: Activity of CYP1A2 in rat liver microsomes assessed as enzyme mediated compound formation treated with 10 uM setileuton after 10 mins in absence of NADPH (reference value: 1.93 +/- 0.40 nM); format: ADME
# Cytochrome P450 1A1 [15] = target: T1, Cytochrome P450 1A1; test: (§1) Activity of rat recombinant CYP1A1 expressed in baculovirus-infected insect cells assessed as enzyme-mediated N-((4-(4-fluorophenyl)-2-oxochroman-7-yl)methyl)-2-((S)-2-hydroxy-2-(trifluoromethyl)butanoyl)hydrazinecarboxamide formation at 10 uM preincubated for 3 mins measured after 30 mins in presence of 1 mM NADPH; format: ADME; details: 0.5 h
# Cytochrome P450 1A2 [16] = target: T2, Cytochrome P450 1A2; test: as §1, with “CYP1A2” for “CYP1A1”; format: ADME; details: 0.5 h
# Cytochrome P450 3A1 [17] = target: T3, Cytochrome P450 3A1; test: as §1, with “CYP3A1” for “CYP1A1”; format: ADME; details: 0.5 h
# Cytochrome P450 3A2 [18] = target: T4, Cytochrome P450 3A2; test: as §1, with “CYP3A2” for “CYP1A1”; format: ADME; details: 0.5 h
# Liver microsome [19] = test: Drug metabolism in rat liver microsomes assessed as N-((4-(4-fluorophenyl)-2-oxochroman-7-yl)methyl)-2-((S)-2-hydroxy-2-(trifluoromethyl)butanoyl)hydrazinecarboxamide formation by Michaelis-Menten equation in presence of 1 mM NADPH for 10 mins; format: ADME
# Cytochrome P450 1A2 [20] = target: T2, Cytochrome P450 1A2; test: (§2) Activity of rat recombinant CYP1A2 expressed in baculovirus-infected insect cells assessed as enzyme-mediated N-((4-(4-fluorophenyl)-2-oxochroman-7-yl)methyl)-2-((S)-2-hydroxy-2-(trifluoromethyl)butanoyl)hydrazinecarboxamide formation preincubated for 3 mins by Michaelis-Menten equation in presence of NADPH for 10 mins; format: ADME
# Cytochrome P450 3A1 [21] = target: T3, Cytochrome P450 3A1; test: as §2, with “CYP3A1” for “CYP1A2”; format: ADME
# Liver microsome [22] = test: Drug metabolism in NADPH fortified rat liver microsomes assessed as N-((4-(4-fluorophenyl)-2-oxochroman-7-yl)methyl)-2-((S)-2-hydroxy-2-(trifluoromethyl)butanoyl)hydrazinecarboxamide level; format: ADME
# [23] = Drug metabolism in rat urine assessed as N-((4-(4-fluorophenyl)-2-oxochroman-7-yl)methyl)-2-((S)-2-hydroxy-2-(trifluoromethyl)butanoyl)hydrazinecarboxamide level; format: ADME, tissue-based
# [24] = substrate: CC[C@](O)(c1nnc(NCc2ccc3c(-c4ccc(F)cc4)cc(=O)oc3c2)o1)C(F)(F)F; test: as §2, with “CYP3A2” for “CYP1A2”; format: ADME
# [25] = substrate: CC[C@](O)(c1nnc(NCc2ccc3c(-c4ccc(F)cc4)cc(=O)oc3c2)o1)C(F)(F)F; test: as §2, with “CYP1A1” for “CYP1A2”; format: ADME
molecule,measurement,setting,value
CC[C@](O)(C(=O)NNC(=O)NCc1ccc2c(-c3ccc(F)cc3)cc(=O)oc2c1)C(F)(F)F,Drug metabolism,Cytochrome P450 1A1 [1],metabolite_detected
same,Drug metabolism,Cytochrome P450 1A2 [2],metabolite_detected
same,Drug metabolism,Cytochrome P450 3A1 [3],metabolite_detected
same,Drug metabolism,Cytochrome P450 3A2 [4],metabolite_detected
same,Drug metabolism,Liver microsome [5],metabolite_detected
same,Drug metabolism,[6],metabolite_detected
same,Drug metabolism,Cytochrome P450 1A2 [7],29.74 nM
same,Drug metabolism,Cytochrome P450 1A2 [8],57.93 nM
same,Drug metabolism,Cytochrome P450 1A2 [9],74.89 nM
same,Drug metabolism,Cytochrome P450 1A2 [10],100.4 nM
same,Drug metabolism,Cytochrome P450 1A2 [11],1.81 nM
same,Drug metabolism,Cytochrome P450 1A2 [12],1.66 nM
same,Drug metabolism,Cytochrome P450 1A2 [13],1.43 nM
same,Drug metabolism,Cytochrome P450 1A2 [14],1.56 nM
CC[C@](O)(c1nnc(NCc2ccc3c(-c4ccc(F)cc4)cc(=O)oc3c2)o1)C(F)(F)F [SETILEUTON],Drug metabolism,Cytochrome P450 1A1 [15],metabolite_detected
same,Drug metabolism,Cytochrome P450 1A2 [16],metabolite_detected
same,Drug metabolism,Cytochrome P450 3A1 [17],metabolite_detected
same,Drug metabolism,Cytochrome P450 3A2 [18],metabolite_detected
same,S50,Liver microsome [19],10.6 µM
same,S50,Cytochrome P450 1A2 [20],8.2 µM
same,S50,Cytochrome P450 3A1 [21],8.2 µM
same,Drug metabolism,Liver microsome [22],metabolite_detected
same,Drug metabolism,[23],metabolite_detected
B1,Km,[24],2.2 µM
B2,Km,[25],6 µM
